Data taken from US9321768B2, “Indoles as respiratory syncytial virus antiviral agents” (JANSSEN SCIENCES IRELAND UC, priority 2010, dated 2016).
Like-named read-outs stand apart in the source and are kept apart here.

How the values were obtained:
rgRSV224 virus = test: microbe, parasite or virus in culture; format: cell-based, respiratory syncytial virus (RSV); details: human respiratory syncytial virus, HeLa, 72 h, read-out: WT activity EC50
Protocol: (§1) Black 96-well clear-bottom microtiter plates (Corning, Amsterdam, The Netherlands) were filled in duplicate using a customized robot system with serial 4-fold dilutions of compound in a final volume of 50 μl culture medium [RPMI medium without phenol red, 10% FBS, 0.04% gentamycin (50 mg/ml) and 0.5% DMSO]. Then, 100 μl of a HeLa cell suspension (5×10^4 cells/ml) in culture medium was added to each well followed by the addition of 50 μl rgRSV224 (MOI=0.02) virus in culture medium using a multidrop dispenser (Thermo Scientific, Erembodegem, Belgium). rgRSV224 virus is an engineered virus that includes an additional GFP gene (Hallak et al, 2000) and was in-licensed from the NIH (Bethesda, Md., USA). Medium, virus- and mockinfected controls were included in each test. Cells were incubated at 37° C. in a 5% CO2 atmosphere. Three days post-virus exposure, viral replication was quantified by measuring GFP expression in the cells by a MSM laser microscope (Tibotec, Beerse, Belgium). The EC50 was defined as the 50% inhibitory concentration for GFP expression. In parallel, compounds were incubated for three days in a set of white 96-well microtitier plates (Corning) and the cytotoxicity of compounds in HeLa cells was determined by measuring the ATP content of the cells using the ATPlite kit (PerkinElmer, Zaventem, Belgium) according to the manufacturer's instructions. The CC50 was defined as the 50% concentration for cytotoxicity.

[1] = Cytotoxicity in HeLa cells, ATP content (ATPlite kit); format: cell-based; details: human
Protocol: as §1

[2] = HeLa cells, three days incubation, ATP content, read-out: Toxicity CC50

Compound	EC50 (rgRSV224 virus) [µM]	CC50 at 3 days [1, 2] [µM]	CC50 at 3 days [1] [µM]
CC(C)CCn1c(Cn2c(=O)n(C3CC3)c3ccncc32)c(C(N)=O)c2ccccc21 [Compound 14, 2-((1-cyclopropyl-2-oxo-1H-imidazo[4,5-c]pyridin-3(2H)-yl)methyl)-1-isopentyl-1H-indole-3-carboxamide]	0.00451	> 24.6	
O=c1n(Cc2c(I)c3ccc(Cl)cc3n2CCCCO)c2cnccc2n1C1CC1 [Compound 15, 3-((6-Chloro-1-(4-hydroxybutyl)-3-iodo-1H-indol-2-yl)methyl)-1-cyclopropyl-1H-imidazo[4,5-c]pyridin-2(3H)-one]	0.0767		> 9.84
O=c1n(Cc2cc3ccc(Cl)cc3n2CCCCO)c2cnccc2n1C1CC1 [Compound 16, 3-((6-Chloro-1-(4-hydroxybutyl)-1H-indol-2-yl)methyl)-1-cyclopropyl-1H-imidazo[4,5-c]pyridin-2(3H)-one]	0.124		> 9.84
CC(C)CCn1c(Cn2c(=O)n(C3CC3)c3ccncc32)c(C(=O)O)c2ccccc21 [Compound 17, 2-((1-cyclopropyl-2-oxo-1H-imidazo[4,5-c]pyridin-3(2H)-yl)methyl)-1-isopentyl-1H-indole-3-carboxylic acid]	0.159	> 98.4	
CCOC(=O)c1c(Cn2c(=O)n(C3CC3)c3ccncc32)n(CCC(C)C)c2ccccc12 [Compound 18, ethyl 2-((1-cyclopropyl-2-oxo-1H-imidazo[4,5-c]pyridin-3(2H)-yl)methyl)-1-isopentyl-1H-indole-3-carboxylate]	3.01	32.1	
CC(C)CCn1c(Cn2c(=O)n(C3CC3)c3ccncc32)c(C(=O)NS(C)(=O)=O)c2ccccc21 [Compound 19, 2-((1-cyclopropyl-2-oxo-1H-imidazo[4,5-c]pyridin-3 (2H)-yl)methyl)-1-isopentyl-N-(methylsulfonyl)-1H-indole-3-carboxamide]	3.21	> 9.84	
